Patent US20050101574A1, “Parathyroid hormone production inhibitors containing vitamin d3 derivatives” (priority 2000, published 2005)

How the values were obtained:
[1] = system: PTH concentration in serum; experiment: PTH concentration in serum of vitamin D deficient rats after intravenous administration (radioimmunoassay); type: in vivo, rat; conditions: for PTH conc.: mean ± standard error, n = 5
Experimental: The number of animals were five for one group.
The volume of administered liquid was 2 mL/kg.
(§1) The volume of administered solution was 2 mL/kg.

[2] = system: intestinal calcium absorption; experiment: Calcium absorption activity of the intestinal canal (duodenum) of vitamin D deficient rats, inverted gut sac method; type: in vivo, rat; parameters: Intestinal calcium absorption: unit not given here; conditions: for Intestinal calcium absorption: Table 4: vitamin D deficient rats, i.v., Time 8 hrs, mean ± standard error, n = 5; for intestinal calcium absorption promoting activity: 8 hours, vitamin D deficient rats
Experimental: as §1
J. Physiol., vol.216, pp. 1351-1359, 1969.

[3] = system: calcium concentration in serum; conditions: rat, in vivo
Experimental: (§2) (1) Male Wistar rats of 4 weeks old were purchased from Japan SLC (SLC, Shizuoka prefecture). The rats were put into wire cages three for each cage and bred under the condition of 23±1° C. and 55±10% humidity by allowing the rats to free ingestion of a vitamin D deficient feed for animal breeding (Ca, 0.0036%; P, 0.3%; Harlan Teklad Research Diet, Madison, Wis., U.S.A.) and drinking water (well water treated with 0.4%±0.2 ppm hypochlorite) for 7 weeks. The number of animals were five for one group.
(§3) (2) As shown in the Table 2, the negative control group (Group 1) was administered with a solvent (5% ethanol/0.1% Triton X-100/physiological saline solution) and the positive control group (Group 2) was administered with 0.5 μg/kg of 1α,25-dihydroxyvitamin D3 by intravenous administration.
(§4) (2) As shown in the Table 3, the negative control group (Group 1) was administered with a solvent (5% ethanol/0.1% Triton X-100/physiological saline solution) and the positive control group (Group 2) was administered with 0.25 μg/kg of 1α,25-dihydroxyvitamin D3 by intravenous administration.
(§5) (2) As shown in the Table 4, the negative control group (Group 1) was administered with a solvent (5% ethanol/0.1% Triton X-100/physiological saline solution) and the positive control group (Group 2) was administered with 1α,25-dihydroxyvitamin D3 at a dose of 0.1 μg/kg, 0.5 μg/kg and 2.5 μg/kg by intravenous administration.

[4] = system: calcium concentration in serum; experiment: Calcium concentration in serum of vitamin D deficient rats after intravenous administration (OCPC method); conditions: for Calcium conc. in serum: Table 4: vitamin D deficient rats; for Calcium conc. in serum / Calcium conc.: i.v., mean ± standard error, n = 5
Experimental: as §2, §3, §4, §5

[5] = intravenous administration at a dose of 0.5 μg/kg, vitamin D deficient rats

SMILES: C=C1CC(CC(C)C2CCC3C(=CC=C4CC(O)CC(O)C4=C)CCCC32C)OC1=O [Compound 11 (23S isomer), (23S)-25-dehydro-1α,25-dihydroxyvitamin D3-26,23-lactone]
- PTH conc. ([1]; Table 2: vitamin D deficient rats, i.v., Administration Rate 50, Time 4 hrs): 354 ± 65 pg/ml serum
- PTH conc. ([1]; Table 2: vitamin D deficient rats, i.v., Administration Rate 50, Time 8 hrs): 330 ± 72 pg/ml serum
- PTH conc. ([1]; Table 2: vitamin D deficient rats, i.v., Administration Rate 50, Time 24 hrs): 319 ± 1 pg/ml serum
- PTH conc. ([1]; Table 2: vitamin D deficient rats, i.v., Administration Rate 50, Time 48 hrs): 436 ± 51 pg/ml serum
- PTH conc. ([1]; Table 2: vitamin D deficient rats, i.v., Administration Rate 50, Time 72 hrs): 528 ± 38 pg/ml serum
- PTH conc. ([1]; Table 3: vitamin D deficient rats, i.v., Administration Rate 2, Time 8 hrs): 488 ± 47 pg/ml serum
- PTH conc. ([1]; Table 3: vitamin D deficient rats, i.v., Administration Rate 10, Time 8 hrs): 385 ± 65 pg/ml serum
- PTH conc. ([1]; Table 3: vitamin D deficient rats, i.v., Administration Rate 50, Time 8 hrs): 319 ± 56 pg/ml serum
- PTH concentration in serum ([1]; intravenous administration at a dose of 10 μg/kg, vitamin D deficient rats (Example 1)): significantly lowered
- time after administration of the lowest level of PTH concentration in serum ([1]; intravenous administration at a dose of 50 μg/kg, vitamin D deficient rats): 24 h
- serum PTH concentration lowering action relative to the action of 1α,25-dihydroxyvitamin D3 ([1]; ratio to 1α,25-dihydroxyvitamin D3, vitamin D deficient rats, i.v., 8 hours): 1/12
- effect on PTH concentration in serum versus serum calcium concentration (conclusion in words) ([1]; vitamin D deficient rats, Examples 1, 2 and 3): effective for lowering the PTH concentration in serum without changing the calcium concentration in serum
- Intestinal calcium absorption ([2]; Administration Rate 10 (mg/kg)): 1.89 ± 0.04
- Intestinal calcium absorption ([2]; Administration Rate 50 (mg/kg)): 2.32 ± 0.21
- Intestinal calcium absorption ([2]; Administration Rate 250 (mg/kg)): 2.53 ± 0.10
- intestinal calcium absorption promoting activity ([2]; administration dose of from 50 μg/kg to 250 μg/kg i.v.): weak
- intestinal calcium absorption promoting activity ([2]; dose of 10 μg/kg i.v.): absolutely unobservable
- calcium metabolism activity [3]: absolutely unobservable

SMILES: C=C1/C(=C\C=C2/CCC[C@]3(C)[C@@H]([C@H](C)CCCC(C)(C)O)CC[C@@H]23)C[C@@H](O)C[C@@H]1O [1α,25-dihydroxyvitamin D3]
- PTH conc. ([1]; Table 3: vitamin D deficient rats, i.v., Administration Rate 0.25, Time 8 hrs): 459 ± 14 pg/ml serum
- time after administration of the lowest level of PTH concentration in serum [1, 5]: 24 h
- PTH conc. ([1]; vitamin D deficient rats, i.v., Administration Rate 0.5, Time 4 hrs): 458 ± 38 pg/ml serum
- PTH conc. ([1]; vitamin D deficient rats, i.v., Administration Rate 0.5, Time 8 hrs): 399 ± 2 pg/ml serum
- PTH conc. ([1]; vitamin D deficient rats, i.v., Administration Rate 0.5, Time 24 hrs): 325 ± 31 pg/ml serum
- PTH conc. ([1]; vitamin D deficient rats, i.v., Administration Rate 0.5, Time 48 hrs): 488 ± 43 pg/ml serum
- PTH conc. ([1]; vitamin D deficient rats, i.v., Administration Rate 0.5, Time 72 hrs): 555 ± 67 pg/ml serum
- Calcium conc. in serum ([4]; Administration Rate 0.1 (mg/kg), Time 8 hrs): 5.30 ± 0.10 mg/100 ml serum
- Calcium conc. in serum ([4]; Administration Rate 0.5 (mg/kg), Time 8 hrs): 5.90 ± 0.40 mg/100 ml serum
- Calcium conc. in serum ([4]; Administration Rate 2.5 (mg/kg), Time 8 hrs): 6.17 ± 0.07 mg/100 ml serum
- time after administration of the maximum level of calcium concentration in serum [4, 5]: 8 h
- Calcium conc. ([4]; vitamin D deficient rats, Administration Rate 0.5 (mg/kg), Time 4 hrs): 5.33 ± 0.09 mg/100 ml serum
- Calcium conc. ([4]; vitamin D deficient rats, Administration Rate 0.5 (mg/kg), Time 8 hrs): 6.00 ± 0.17 mg/100 ml serum
- Calcium conc. ([4]; vitamin D deficient rats, Administration Rate 0.5 (mg/kg), Time 24 hrs): 5.87 ± 0.22 mg/100 ml serum
- Calcium conc. ([4]; vitamin D deficient rats, Administration Rate 0.5 (mg/kg), Time 48 hrs): 5.48 ± 0.15 mg/100 ml serum
- Calcium conc. ([4]; vitamin D deficient rats, Administration Rate 0.5 (mg/kg), Time 72 hrs): 5.10 ± 0.18 mg/100 ml serum
